How the values were obtained:
Assay type in all cases: in vivo
[1] = test system: ivyleaf morningglory (Ipomoea hederacea, IPOHE); assay: Pre-emerge test, greenhouse herbicide activity screening; conditions: phytotoxicity rating 0-100, 14 days after application
Procedure, shortened: (§1)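 Fourteen days after spraying, crop and weed injury was graded visually from 0, no effect, to 100, every plant dead. Test substances were dissolved in acetone and applied at 15–1000 g ai/ha with a flat-fan nozzle. Application was either pre-emergence, one day after sowing, or post-emergence at the 2–3 leaf stage.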

[2] = test system: green foxtail (Setaria viridis, SETVI); assay: as above; conditions: phytotoxicity rating 0-100, 14 days after application
Procedure, shortened: as §1

[3] = test system: johnsongrass (Sorghum halepense, SORHA); assay: as above; conditions: phytotoxicity rating 0-100, 14 days after application
Procedure, shortened: as §1

[4] = test system: lambsquarters (Chenopodium album, CHEAL); assay: as above; conditions: phytotoxicity rating 0-100, 14 days after application
Procedure, shortened: as §1

[5] = test system: sicklepod (Cassia obtusifolia, CASOB); assay: as above; conditions: phytotoxicity rating 0-100, 14 days after application
Procedure, shortened: as §1

[6] = test system: barnyardgrass (Echinochloa crus-galli, ECHCG); assay: as above; conditions: phytotoxicity rating 0-100, 14 days after application
Procedure, shortened: as §1

[7] = test system: large crabgrass (Digitaria sanguinalis, DIGSA); assay: as above; conditions: phytotoxicity rating 0-100, 14 days after application
Procedure, shortened: as §1

[8] = test system: velvetleaf (Abutilon theophrasti, ABUTH); assay: as above; conditions: phytotoxicity rating 0-100, 14 days after application
Procedure, shortened: as §1

[9] = test system: field corn (Zea mays L., var. Dekalb 535, CORN); assay: Post-emerge test, crop safety; conditions: post-emerge, 14 days after application, rating scale 0-100
Procedure, shortened: as §1

[10] = test system: upland rice (Oryza sp., var. Tebonnet, RICE); assay: Post-emerge test, crop safety; conditions: post-emerge, 14 days after application, rating scale 0-100
Procedure, shortened: as §1

[11] = test system: ivyleaf morningglory (Ipomoea hederacea, IPOHE); assay: Post-emerge test, greenhouse herbicide activity screening; conditions: post-emerge, 14 days after application, rating scale 0-100
Procedure, shortened: as §1

[12] = test system: green foxtail (Setaria viridis, SETVI); assay: as above; conditions: post-emerge, 14 days after application, rating scale 0-100
Procedure, shortened: as §1

[13] = test system: johnsongrass (Sorghum halepense, SORHA); assay: as above; conditions: post-emerge, 14 days after application, rating scale 0-100
Procedure, shortened: as §1

[14] = test system: lambsquarters (Chenopodium album, CHEAL); assay: as above; conditions: post-emerge, 14 days after application, rating scale 0-100
Procedure, shortened: as §1

[15] = test system: sicklepod (Cassia obtusifolia, CASOB); assay: as above; conditions: post-emerge, 14 days after application, rating scale 0-100
Procedure, shortened: as §1

[16] = test system: barnyardgrass (Echinochloa crus-galli, ECHCG); assay: as above; conditions: post-emerge, 14 days after application, rating scale 0-100
Procedure, shortened: as §1

[17] = test system: large crabgrass (Digitaria sanguinalis, DIGSA); assay: as above; conditions: post-emerge, 14 days after application, rating scale 0-100
Procedure, shortened: as §1

[18] = test system: velvetleaf (Abutilon theophrasti, ABUTH); assay: as above; conditions: post-emerge, 14 days after application, rating scale 0-100
Procedure, shortened: as §1

[19] = test system: redroot pigweed (Amaranthus retroflexus, AMARE); assay: as above; conditions: post-emerge, 14 days after application
Procedure, shortened: as §1

[20] = test system: field corn (Zea mays L., var. Dekalb 535, CORN); assay: Pre-emerge test, crop safety; conditions: crop damage rating 0-100, 14 days after application
Procedure, shortened: (§2)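 Rating: 0–100 visual injury, 14 DAA. Application: acetone, 187 l/ha, 15–1000 g ai/ha, flat-fan track sprayer with nozzle 40–45 cm above soil or canopy. Post-emerge runs used 0.25% v/v surfactant on 2–3 leaf plants.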

[21] = test system: upland rice (Oryza sp., var. Tebonnet, RICE); assay: Pre-emerge test, crop safety; conditions: crop damage rating 0-100, 14 days after application
Procedure, shortened: as §2

[22] = test system: redroot pigweed (Amaranthus retroflexus, AMARE); assay: Pre-emerge test, greenhouse herbicide activity screening; conditions: phytotoxicity rating 0-100, 14 days after application
Procedure, shortened: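 Herbicidal damage is scored 0 (none) to 100 (complete plant death) two weeks after a simulated field spray. Rates span 15–1000 g ai/ha, delivered in acetone at 187 l/ha. For post-emergence treatments, plants have 2–3 leaves and the spray carries 0.25% v/v non-ionic surfactant.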

## COc1c(Cl)cc(F)c(-n2c(=O)cc(C(F)(F)F)n(C)c2=O)c1NC(=O)Nc1ccccc1 [Compound 3-4]
[1]; 63 g ai/ha
  Pre-emerge Herbicidal Activity IPOHE: 0
[1]; 250 g ai/ha
  Pre-emerge Herbicidal Activity IPOHE: 50
[2]; 63 g ai/ha
  Pre-emerge Herbicidal Activity SETVI: 20
[2]; 250 g ai/ha
  Pre-emerge Herbicidal Activity SETVI: 60
[3]; 63 g ai/ha
  Pre-emerge Herbicidal Activity SORHA: 0
[3]; 250 g ai/ha
  Pre-emerge Herbicidal Activity SORHA: 10
[4]; 63 g ai/ha
  Pre-emerge Herbicidal Activity CHEAL: 0
[4]; 250 g ai/ha
  Pre-emerge Herbicidal Activity CHEAL: 100
[5]; 63 g ai/ha
  Pre-emerge Herbicidal Activity CASOB: 0
[5]; 250 g ai/ha
  Pre-emerge Herbicidal Activity CASOB: 60
[6]; 63 g ai/ha
  Pre-emerge Herbicidal Activity ECHCG: 0
[6]; 250 g ai/ha
  Pre-emerge Herbicidal Activity ECHCG: 0
[7]; 63 g ai/ha
  Pre-emerge Herbicidal Activity DIGSA: 0
[7]; 250 g ai/ha
  Pre-emerge Herbicidal Activity DIGSA: 10
[8]; 63 g ai/ha
  Pre-emerge Herbicidal Activity ABUTH: 0
[8]; 250 g ai/ha
  Pre-emerge Herbicidal Activity ABUTH: 100
[9]; 63 g ai/ha
  phytotoxicity rating CORN (crop damage): 0
[9]; 250 g ai/ha
  phytotoxicity rating CORN (crop damage): 0
[10]; 63 g ai/ha
  phytotoxicity rating RICE (crop damage): 0
[10]; 250 g ai/ha
  phytotoxicity rating RICE (crop damage): 10
[11]; 63 g ai/ha
  phytotoxicity rating IPOHE: 0
[11]; 250 g ai/ha
  phytotoxicity rating IPOHE: 0
[12]; 63 g ai/ha
  phytotoxicity rating SETVI: 0
[12]; 250 g ai/ha
  phytotoxicity rating SETVI: 0
[13]; 63 g ai/ha
  phytotoxicity rating SORHA: 0
[13]; 250 g ai/ha
  phytotoxicity rating SORHA: 0
[14]; 63 g ai/ha
  phytotoxicity rating CHEAL: 0
[14]; 250 g ai/ha
  phytotoxicity rating CHEAL: 0
[15]; 63 g ai/ha
  phytotoxicity rating CASOB: 0
[15]; 250 g ai/ha
  phytotoxicity rating CASOB: 0
[16]; 63 g ai/ha
  phytotoxicity rating ECHCG: 0
[16]; 250 g ai/ha
  phytotoxicity rating ECHCG: 0
[17]; 63 g ai/ha
  phytotoxicity rating DIGSA: 0
[17]; 250 g ai/ha
  phytotoxicity rating DIGSA: 0
[18]; 63 g ai/ha
  phytotoxicity rating ABUTH: 40
[18]; 250 g ai/ha
  phytotoxicity rating ABUTH: 50
[19]; 63 g ai/ha, rating scale 0-100 (0 no damage, 100 complete death)
  phytotoxicity rating AMARE: 0
[19]; 250 g ai/ha, rating scale 0-100
  phytotoxicity rating AMARE: 0
[20]; 63 g ai/ha
  Pre-emerge Herbicidal Activity CORN: 0
[20]; 250 g ai/ha
  Pre-emerge Herbicidal Activity CORN: 0
[21]; 63 g ai/ha
  Pre-emerge Herbicidal Activity RICE: 0
[21]; 250 g ai/ha
  Pre-emerge Herbicidal Activity RICE: 15
[22]; 63 g ai/ha
  Pre-emerge Herbicidal Activity AMARE: 0
[22]; 250 g ai/ha
  Pre-emerge Herbicidal Activity AMARE: 100

Source: patent US6355799B1, “Substituted benzene compounds, process for their preparation, and herbicidal and defoliant compositions containing them” (ISK Americas Incorporated, priority 1997, dated 2002)
